Experimental data published in PubChem BioAssay AID1963597 (National Center for Advancing Translational Sciences (NCATS), 2024).

System: human liver microsomes, metabolic stability half-life
Test: NCATS Human Liver Microsomal (HLM) Stability Profiling
Conditions: higher = more stable; screened at 1 µM (by protocol)
In short: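 Substrate depletion (in vitro t1/2): 1 µM compound with 0.5 mg/mL microsomes and NADPH regenerating system, phosphate buffer pH 7.4, 37 °C. Sampled at 0, 5, 10, 15, 30, 60 min into cold acetonitrile with albendazole internal standard for MS quantification.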

Structure (SMILES)	half-life [min]
COc1ccc(CCNC(=O)CCc2c(C)c3cc4c(C)coc4cc3oc2=O)cc1	5.41
COc1ccc(OC)c([C@H](O)[C@H](C)N)c1	> 120
Cc1ccc(-c2noc([C@@H]3Cc4nc[nH]c4CN3Cc3cccc(C#N)c3)n2)cc1	11.4
CCOC(=O)Nc1ccc(NCc2ccc(F)cc2)cc1N	> 120
Cc1ccc(S(=O)(=O)NC2CCC(C(C)(C)C)CC2)cc1 (stereo not drawn)	3.92
CCC[C@H](N[C@H]1CCc2cc(F)cc(F)c2C1)C(=O)Nc1cn(C(C)(C)CNCC(C)(C)C)cn1	3.12
Cc1ccc2nc(-c3cc(NC(=O)c4ccc5c(c4)OCCO5)ccc3Cl)oc2c1	63.3
Cc1ccc(C(C)(O)c2nc3ccccc3s2)c(C)c1 (stereo not drawn)	4.22
COc1ccc(Oc2c(Cl)cnn(-c3cc(C)cc(C)c3)c2=O)cc1	17.4
COc1cc2nc(Cl)nc(N)c2cc1OC	105
CC[C@]1(O)C[C@@H]2CN(CCc3c([nH]c4ccccc34)[C@@](C(=O)OC)(c3cc4c(cc3OC)N(C)[C@H]3[C@@](O)(C(=O)OC)[C@H](OC(C)=O)[C@]5(CC)C=CCN6CC[C@]43[C@@H]65)C2)C1	54.6
CN(C)S(=O)(=O)c1ccc(S(=O)(=O)N(Cc2ccco2)Cc2ccccc2Cl)cc1	3.33
CNc1ccc2oc(C[C@H]3O[C@@]4(CC[C@H]3C)O[C@H](C(C)C(=O)c3ccc[nH]3)[C@H](C)C[C@H]4C)nc2c1C(=O)O (stereo partly drawn)	> 120
CC1(C)O[C@H]2CC(=O)OC[C@]23[C@H]2CC[C@@]4(C)[C@H](c5ccoc5)OC(=O)[C@H]5O[C@]54[C@]2(C)C(=O)C[C@@H]13	13.4
O=C(Nc1nnc(-c2ccc3c(c2)OCCO3)o1)C1CCCCC1	0.57
C1COC(NC(C2CC2)C2CC2)=N1	> 120
OC1(c2ccc(Cl)cc2)CCNCC1	> 120
Nc1ccc(N=Nc2ccccc2)c(N)n1	7.45
COc1cc(Nc2nc3c(s2)CCCC3c2ccccc2)ccc1-n1cnc(C)c1 (stereo not drawn)	31
COCC(C)N(C(=O)CCl)c1c(C)csc1C (stereo not drawn)	10.9
CC[C@H](C)C(=O)O[C@H]1C[C@@H](C)C=C2C=C[C@H](C)[C@H](CC[C@@H]3C[C@@H](O)CC(=O)O3)[C@H]21	7.05
CC1(c2ccccc2)N(Cc2ccccc2)C(=O)OC12CCN(Cc1ccc(C(=O)O)cc1)CC2 (stereo not drawn)	> 120
O=c1c(-c2ccccc2)c1-c1ccccc1	3.57
CCOC(=O)c1cc(=O)c2c(OCC(COc3cccc4oc(C(=O)OCC)cc(=O)c34)OC(=O)[C@@H](N)CCCCN)cccc2o1	4.47
O=C(CCC1CCN(Cc2ccccc2)CC1)c1ccc2c(c1)NCCCC2	5.22

Structure (SMILES)	half-life [min]
CC(C)c1ccc2oc(-c3ccc(NC(=O)c4cc5ccccc5o4)cc3)nc2c1	25.3
N#Cc1cccc(C(=O)Nc2cc(-c3ccccc3)nn2-c2ccccc2)c1	18.7
Cc1nc2c3ccccc3nc(NNC(=O)CCC(=O)N3CCN(c4ccccc4)CC3)n2n1	107
CN1CC(O)c2cc(N=NC(N)=O)c(O)cc21 (stereo not drawn)	> 120
O=C(CCCN1CCC(n2c(=O)[nH]c3ccccc32)CC1)c1ccc(F)cc1	> 120
CCN1CCN(Cc2ccc(NC(=O)c3ccc(C)c(/C=C/c4cnc5[nH]ccc5c4OC)c3)cc2C(F)(F)F)CC1	> 120
COCCCNC(=O)C(=O)Nc1c2c(nn1-c1cccc(Cl)c1)CSC2	24.9
Cc1cccc(N(C)C(=S)Oc2ccc3ccccc3c2)c1	2.99
O[C@@H]1CO[C@H]2[C@@H]1OC[C@@H]2O	> 120
CC(C)(C)c1ccc(C(=O)CCCCl)cc1	3.84
CCOC(=O)C1(CCOc2ccccc2)CCN(Cc2ccc(O)c(Cl)c2)CC1	5.08
CCN1CCN(C(=O)c2ccc3c(c2)N(Cc2cc(C)ccc2C)C(=O)c2ccccc2S3(=O)=O)CC1	1.24
Cc1nc2ccc(CN(C)c3ccc(C(=O)NC(CCC(=O)O)C(=O)O)s3)cc2c(=O)[nH]1 (stereo not drawn)	> 120
CN(C)C(CCOc1cccc2ccccc12)c1ccccc1 (stereo not drawn)	12.8
CC(=O)N1CCN(C(=O)Cc2ccc(Nc3ncc(F)c(Nc4ccc(C(=O)Nc5ccccc5Cl)cc4)n3)cc2)CC1	15.6
COc1ccc(CN2CCC3(CC(C)=NO3)C2)cc1 (stereo not drawn)	19.2
c1ccc(OCc2ccc(CCCN3CCOCC3)cc2)cc1	26.7
COc1cc2c(Nc3ccc(Cl)c(Cl)c3F)ncnc2cc1OCC1C[C@@H]2CN(C)C[C@@H]2C1 (stereo partly drawn)	61.9
O=C1CCC(c2ccccc2)(C2CCN(Cc3ccc(I)cc3)CC2)C(=O)N1 (stereo not drawn)	> 120
CCc1noc(-c2ccc(NCc3ccccc3)c([N+](=O)[O-])c2)n1	4.39
Cc1c(C)n(Cc2ccc(-c3ccccc3C(=O)O)cc2)c2ccc(C(=O)N[C@@H](C)c3ccc([N+](=O)[O-])cc3)cc12	> 120
CN(C)c1nc(Cc2ccc(NC(=O)c3ccc4ccccc4c3)cc2)nc(Cl)c1CC(=O)O	> 120
CCCCN(CCCC)C(=O)CN1C[C@H](c2ccc3c(c2)OCO3)[C@@H](C(=O)O)[C@@H]1c1ccc(OC)cc1	72.6
CC(C)c1ccc(NC(=O)C(c2ccccc2)N(C)C(=O)Cc2c[nH]c3ccccc23)cc1 (stereo not drawn)	7.38
CN(C)S(=O)(=O)c1ccc(S(=O)(=O)N(Cc2ccccc2Cl)C[C@@H]2CCCO2)cc1	1.28

Structure (SMILES)	half-life [min]
Oc1ccccc1-c1nnco1	43.3
CCCCOCc1cc(CN2CCN(c3cccc(Cl)c3)CC2)c(O)c2ncccc12	10.3
C[C@H]1[C@H](/C=C/c2ccc(-c3ccccc3C#N)cn2)[C@@H]2[C@@H](C)OC(=O)[C@@H]2C[C@@H]1C	15.3
COc1ccc(-n2nc(C3CCCN(CC4CCCCC4)C3)[nH]c2=O)cc1 (stereo not drawn)	108
COc1ccc(-n2nc3c(N4CCCC(C(=O)NCc5ccccc5C)C4)nnc(C)c3c2C)cc1 (stereo not drawn)	2.48
FC(F)c1nc2ccccc2n1-c1nc(N2CCOCC2)nc(N2CCOCC2)n1	25.4
C[C@]12CCC3c4ccc(O)cc4C[C@@H](CCCCCCCCCS(=O)CCCC(F)(F)C(F)(F)F)[C@H]3[C@@H]1CC[C@@H]2O (stereo partly drawn)	4.1
NC(N)=NS(=O)(=O)c1ccc(N)cc1	78.3
CC(=O)OCC(CCn1cnc2cnc(N)nc21)COC(C)=O	2.34
COc1cc(C)c(Sc2cnc(NC(=O)c3ccc(CNC(C)C(C)C)cc3)s2)cc1C(=O)N1CCN(C(C)=O)CC1 (stereo not drawn)	8.06
CCOc1ccc(S(=O)(=O)N2CCCCCC2)c2ccccc12	6.52
COC(=O)/C=C\C(=O)OC	> 120
CCn1ccnc1C[C@@H]1COc2ccccc2O1	55.3
Cc1cc(C)c(/C=C2\C(=O)Nc3ccccc32)[nH]1	11
Fc1ccccc1-c1nc2ccn(Cc3ccc(-c4ccc(C(F)(F)F)cc4C(F)(F)F)nn3)cc-2n1	> 120
CN(C)c1cc2c(cc1Sc1nc3c(N)nccc3n1CCNCC(C)(C)C)OCO2	3.18
CCCCCCCCCCCCCCCCCCN(C)C	> 120
CC1(C)CC(=O)c2c(C(F)(F)F)nn(-c3ccc(C(N)=O)c(NC4CCC(OC(=O)CN)CC4)c3)c2C1 (stereo not drawn)	1.57
CN(C)[C@@H]1C(=O)C(C(N)=O)=C(O)[C@@]2(O)C(=O)C3=C(O)c4c(O)cccc4C[C@H]3C[C@@H]12	> 120
Cc1cccc(N(C)C(=S)Oc2ccc3c(c2)CCC3)c1	1.94
Cc1ccc2c(c1)c1c3n2CCNC3CCC1 (stereo not drawn)	8.9
COc1cc(NS(=O)(=O)c2ccc(N)cc2)nc(OC)n1	> 120
O=C(NC1(c2ccccc2)CC1)c1c(CN2CCC(N3CCCCC3)CC2)c(-c2cccc(C(F)(F)F)c2)nc2cc(Br)ccc12	28.1
ClCCN1CCCC1	55.7
CCOCCCNC(=O)CCC(=O)NNc1nc2ccccc2c2nc(-c3ccccc3)nn12	88

Structure (SMILES)	half-life [min]
NC1(c2ccc(-c3nc4ccn5c(=O)[nH]nc5c4cc3-c3ccccc3)cc2)CCC1	83
FC(F)(F)c1ccccc1-c1cc(C(F)(F)F)c2nc(C3=NOC4(CCCCC4)C3)[nH]c2c1	67.7
CC(C)(C)c1coc([C@@H]2COCCN2Cc2cccc(C#N)c2)n1	10.4
COc1cc(C)c(/C=C/C(C)=C/C=C/C(C)=C/C(=O)O)c(C)c1C	32
Cc1ccc(COC(=O)N2CC[C@@H](CNc3ncccn3)[C@@H](F)C2)cc1	64.9
CCOP(=S)(OCC)Oc1cc(Cl)c(Br)cc1Cl	57.6
c1ccc(-c2csc(N3CCOCC3)n2)cc1	3.95
Cc1ccc(N2CCN(C(=O)C3CCN(c4ncnc5c4nc4n5CCCCC4)CC3)CC2)c(C)c1	> 120
O=C(N[C@@H]1CC[C@@H](c2cccc(F)c2F)CN(CC(F)(F)F)C1=O)N1CCC(n2c(=O)[nH]c3ncccc32)CC1	60.2
O=C(CCc1nnc2n(Cc3ccc(Cl)cc3)c(=O)c3ccccc3n12)NCCC1=CCCCC1	1.05
CCOC(=O)c1ncn2c1CN(C)C(=O)c1cc(F)ccc1-2	> 120
C#C[C@]1(OC(C)=O)CC[C@H]2[C@@H]3CCC4=C/C(=N/O)CC[C@@H]4[C@H]3CC[C@@]21CC	6.21
C[C@@]1(c2cc(-c3cncnc3)c(F)cc2F)CCSC(N)=N1	> 120
CC1(C)CCC(CN2CCN(c3ccc(C(=O)NS(=O)(=O)c4ccc(NCC5CCOCC5)c([N+](=O)[O-])c4)c(Oc4cnc5[nH]ccc5c4)c3)CC2)=C(c2ccc(Cl)cc2)C1	32.8
Fc1ccc2[nH]c(CN3CCN(c4ccccn4)CC3)cc2c1	14.3
CCOC(=O)c1c(C)nn(-c2cccc([N+](=O)[O-])c2)c1C	2.08
Cc1ccc(C(=O)c2cc(O)c(O)c([N+](=O)[O-])c2)cc1	34.1
Clc1cccc(C(c2ccc3nc[nH]c3c2)n2ccnc2)c1 (stereo not drawn)	> 120
COc1ccc2nc([C@H]3CCN(Cc4cccc(C#N)c4)C3)[nH]c2c1	12.3
CCN(CC)C(=O)SCc1ccc(Cl)cc1	2.59
CN1CCC(=C2c3ccccc3CCc3cccnc32)CC1	> 120
COc1ccc(C(=O)Oc2ccc(C(c3c(C)[nH][nH]c3=O)c3c(C)[nH][nH]c3=O)cc2)cc1	1.55
CCCCC(=O)OCC(=O)[C@H]1[C@H](C)C[C@H]2[C@@H]3C[C@H](F)C4=CC(=O)C=C[C@]4(C)[C@@]3(F)[C@@H](O)C[C@@]21C	5.18
